“And” between values parts separate entries of the source, which are not always exact repeats. Equal values may be shown once.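 Tested at 5 concentrations; 48 h exposure; 96-well plates; endpoints linearly interpolated, else capped at highest concentration. GI50 marks 50% less growth. TGI: total growth inhibition.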
Key:
Experiment in all cases: NCI tumour cell line growth inhibition, 48 h
786-0 renal = test system: 786-0 renal
A498 renal = test system: A498 renal
A549 NSCLC = test system: A549 NSCLC
ACHN renal = test system: ACHN renal
BT-549 breast = test system: BT-549 breast
CAKI-1 renal = test system: CAKI-1 renal
CCRF-CEM leukemia = test system: CCRF-CEM leukemia
COLO 205 colon = test system: COLO 205 colon
DLD-1 colon = test system: DLD-1 colon
DMS 114 small cell lung = test system: DMS 114 small cell lung
DMS 273 small cell lung = test system: DMS 273 small cell lung
DU-145 prostate = test system: DU-145 prostate
EKVX NSCLC = test system: EKVX NSCLC
HCC-2998 colon = test system: HCC-2998 colon
HCT-15 colon = test system: HCT-15 colon
HOP-18 NSCLC = test system: HOP-18 NSCLC
HOP-62 NSCLC = test system: HOP-62 NSCLC
HOP-92 NSCLC = test system: HOP-92 NSCLC
HS 578T breast = test system: HS 578T breast
HT29 colon = test system: HT29 colon
IGROV1 ovarian = test system: IGROV1 ovarian
K-562 leukemia = test system: K-562 leukemia
KM12 colon = test system: KM12 colon
KM20L2 colon = test system: KM20L2 colon
M14 melanoma = test system: M14 melanoma
M19-MEL melanoma = test system: M19-MEL melanoma
MALME-3M melanoma = test system: MALME-3M melanoma
MCF7 breast = test system: MCF7 breast
MDA-MB-231 breast = test system: MDA-MB-231 breast
MDA-MB-435 = test system: MDA-MB-435
MDA-N = test system: MDA-N
MOLT-4 leukemia = test system: MOLT-4 leukemia
NCI-H23 lung = test system: NCI-H23 lung
NCI/ADR-RES ovarian = test system: NCI/ADR-RES ovarian
OVCAR-3 ovarian = test system: OVCAR-3 ovarian
OVCAR-4 ovarian = test system: OVCAR-4 ovarian
OVCAR-5 ovarian = test system: OVCAR-5 ovarian
P388 leukemia = test system: P388 leukemia
P388/ADR leukemia = test system: P388/ADR leukemia
PC-3 prostate = test system: PC-3 prostate
RXF 393 renal = test system: RXF 393 renal
SK-MEL-2 melanoma = test system: SK-MEL-2 melanoma
SK-MEL-28 melanoma = test system: SK-MEL-28 melanoma
SK-OV-3 ovarian = test system: SK-OV-3 ovarian
SN12C renal = test system: SN12C renal
SN12K1 renal = test system: SN12K1 renal
SNB-19 CNS = test system: SNB-19 CNS
SNB-75 CNS = test system: SNB-75 CNS
SNB-78 CNS = test system: SNB-78 CNS
SR leukemia = test system: SR leukemia
SW-620 colon = test system: SW-620 colon
T-47D breast = test system: T-47D breast
TK-10 renal = test system: TK-10 renal
UACC-62 melanoma = test system: UACC-62 melanoma
UO-31 renal = test system: UO-31 renal

Structure (SMILES): CC(C)CCCCCCCCCCCCC(=O)NCC(=O)NC1C(O)C(O)C(Nc2ncnc3nc[nH]c23)OC1C(O)CO (configuration not stated)
- TGI (786-0 renal): 526 nM
- GI50 (A498 renal): 5 nM
- TGI (A498 renal): 12.3 nM and 13.2 nM
- TGI (A549 NSCLC): 7.87 nM and 53.7 nM and 32.7 nM
- GI50 (ACHN renal): < 0.01 nM
- GI50 (BT-549 breast): < 0.01 nM
- GI50 (CAKI-1 renal): < 0.01 nM
- TGI (CAKI-1 renal): 1.1 nM and 0.619 nM
- GI50 (CCRF-CEM leukemia): 31.8 nM and 23 nM
- TGI (CCRF-CEM leukemia): 590 nM and 3360 nM
- TGI (COLO 205 colon): 3.16 nM and 1.55 nM and 5.26 nM
- GI50 (DLD-1 colon): 10.4 nM
- TGI (DLD-1 colon): 3830 nM
- GI50 (DMS 114 small cell lung): 5 nM
- TGI (DMS 114 small cell lung): 27.8 nM and 6.87 nM
- TGI (DMS 273 small cell lung): 1.74 nM
- GI50 (DU-145 prostate): < 0.01 nM
- TGI (EKVX NSCLC): 22.8 nM and 57.8 nM and 19.9 nM
- GI50 (HCC-2998 colon): < 0.01 nM
- GI50 (HCT-15 colon): 5.99 nM and 24.9 nM
- TGI (HCT-15 colon): 896 nM and 1100 nM
- TGI (HOP-18 NSCLC): 1.08 nM
- GI50 (HOP-62 NSCLC): < 0.01 nM
- GI50 (HOP-92 NSCLC): < 0.01 nM
- TGI (HS 578T breast): 446 nM
- TGI (HT29 colon): 10.9 nM and 66.6 nM and 14.8 nM
- GI50 (IGROV1 ovarian): 5 nM
- TGI (IGROV1 ovarian): 7.55 nM and 8.4 nM
- GI50 (K-562 leukemia): 3.31 nM and 12.8 nM
- TGI (K-562 leukemia): 412 nM and 3940 nM
- TGI (KM12 colon): 47.9 nM and 23.5 nM
- GI50 (KM20L2 colon): 5 nM
- TGI (KM20L2 colon): 22.2 nM and 13.8 nM
- GI50 (M14 melanoma): < 0.01 nM
- GI50 (M19-MEL melanoma): 5 nM
- TGI (M19-MEL melanoma): 40.9 nM and 15.6 nM
- TGI (MALME-3M melanoma): 12.5 nM and 7.24 nM
- GI50 (MCF7 breast): 2.87 nM and 11.3 nM
- TGI (MCF7 breast): 394 nM and 352 nM
- GI50 (MDA-MB-231 breast): < 0.01 nM
- TGI (MDA-MB-231 breast): 380 nM
- GI50 (MDA-MB-435): < 0.01 nM
- GI50 (MDA-N): < 0.01 nM
- TGI (MOLT-4 leukemia): 153 nM and 430 nM
- GI50 (NCI-H23 lung): 5 nM
- TGI (NCI-H23 lung): 35.4 nM and 37.1 nM
- TGI (NCI/ADR-RES ovarian): 124 nM and 42.2 nM
- TGI (OVCAR-3 ovarian): 1.89 nM and 2.79 nM and 5.09 nM
- GI50 (OVCAR-4 ovarian): < 0.01 nM
- GI50 (OVCAR-5 ovarian): 5 nM
- TGI (OVCAR-5 ovarian): 17.1 nM and 69.5 nM
- GI50 (P388 leukemia): 5 nM
- TGI (P388 leukemia): 6.16 nM and 5.07 nM
- GI50 (P388/ADR leukemia): 5 nM
- GI50 (PC-3 prostate): < 0.01 nM
- GI50 (RXF 393 renal): < 0.01 nM
- GI50 (SK-MEL-2 melanoma): < 0.01 nM
- TGI (SK-MEL-2 melanoma): 11.7 nM and 38.9 nM and 10.7 nM
- GI50 (SK-MEL-28 melanoma): 3.34 nM and 10.2 nM
- TGI (SK-MEL-28 melanoma): 370 nM and 797 nM
- GI50 (SK-OV-3 ovarian): 5 nM
- TGI (SK-OV-3 ovarian): 3.44 nM and 22.4 nM
- GI50 (SN12C renal): 5.74 nM and 5 nM
- TGI (SN12C renal): 72.9 nM and 14.5 nM
- GI50 (SN12K1 renal): 6.46 nM
- TGI (SN12K1 renal): 332 nM and 223 nM
- TGI (SNB-19 CNS): 12.1 nM and 3.67 nM and 6.83 nM
- GI50 (SNB-75 CNS): < 0.01 nM
- GI50 (SNB-78 CNS): 5 nM
- TGI (SNB-78 CNS): 64.7 nM and 244 nM
- GI50 (SR leukemia): < 0.01 nM
- GI50 (SW-620 colon): 0.756 nM and 5 nM
- TGI (T-47D breast): 917 nM
- GI50 (TK-10 renal): < 0.01 nM
- GI50 (UACC-62 melanoma): < 0.01 nM
- GI50 (UO-31 renal): 5 nM
- TGI (UO-31 renal): 4.51 nM and 7.5 nM
